Test results taken from patent publication US11332756B2, “RNA virus vectors carrying DAI and RIPK3” (Institute For Cancer Research, priority 2016, dated 2022).
*1 amine or outer side, *2 acyl side, *3 side chain or, on linkers, in order; H or OH if unused. Where a SMILES comes first, the peptide text is derived from it. Bridges are numbered along the chain shown (N, C = ends). Roman numbers before positions name the chains, in order. [ ]: non-standard residue; d: D form. The star is where a group is joined. Actinocin(9to1) = Cc1c2oc3c(C)ccc(C(=O)[*:1])c3nc-2c(C(=O)[*:2])c(N)c1=O; NMeV = CN[C@H](C(=O)O)C(C)C; Cbz = O=C(OCc1ccccc1)*; Sar = CNCC(=O)O; CH2F = FC*

How the values were obtained:
IAV (PR8) = format: cell-based, Influenza A virus
RIPK3-RIPK1 necrosome [1] = target: T1, RIPK3-RIPK1 necrosome (Mus musculus, UniProt Q9QZL0); assay: IAV-induced RIPK3-RIPK1 necrosome formation (RIPK3 immunoprecipitation) in MEFs; format: cell-based, murine; conditions: for IAV (PR8)-induced RIPK3-RIPK1 necrosome / complex formation: PR8-infected MEFs, cells pre-treated with agent, RIPK3 immunoprecipitation
T1 construct: RIPK3 was immunoprecipitated from lysates of PR8-infected MEFs; endogenous in cells; host or cells: wild-type mouse embryo fibroblasts (MEFs)
Text: (§1) IAV replication results in assembly of a RIPK3 complex containing RIPK1, FADD and MLKL. A molecular feature of RIPK3 dependent cell death is the stimulus-driven formation of a molecular complex called the necrosome, comprising as its core phosphorylated forms of RIPK3 and RIPK1, together with FADD and MLKL. From the necrosome, RIPK3 can activate both necroptosis and apoptosis, depending on target availability or RIPK3 activity. To test if IAV induced formation of a necrosome, RIPK3 was immunoprecipitated from lysates of PR8-infected MEFs, and immunoprecipitates were examined for the presence of slower-mobility forms of phosphorylated RIPK1. PR8 activated necrosome formation to a significant extent, as did the combination of PR8+zVAD (see, FIG. 4A, left and middle panels). Like TNF-α (see, FIG. 4A, right panels), IAV infection also drove the recruitment of FADD and MLKL into the RIPK3-RIPK1 necrosome.

[2] = system: MLKL phosphorylation and cleavage of caspase 8; assay: Immunoblot of phosphorylated MLKL and cleaved caspase 8 in PR8-infected MEFs; format: cell-based, murine; conditions: wild-type MEFs, zVAD 50 μM
[3] = system: mlkl−/− MEFs infected with PR8; format: cell-based, murine
[4] = system: wild-type MEFs infected with PR8; format: cell-based, murine
[5] = system: apoptosis activated by TRAIL and cycloheximide in MEFs; assay: Apoptosis induced by TRAIL and cycloheximide; format: cell-based, murine; conditions: TRAIL 2 μg/ml + CHX 250 ng/ml; anti-TRAIL-R2 10 μg/ml; zVAD same dose as in PR8 test
[6] = system: ripk3−/− MEFs infected with PR8; format: cell-based, murine
[7] = system: ripk1−/− MEFs infected with PR8; format: cell-based, murine
[8] = system: TCZ-treated wild-type MEFs; format: cell-based, murine
RIPK3-RIPK1 necrosome [9] = target: T1, RIPK3-RIPK1 necrosome; assay: TNF-α-induced necrosome assembly in MEFs; format: cell-based, murine; conditions: same doses as in PR8 experiment; not shown
Text: as §1

T1 sequence (Q9QZL0 whole entry): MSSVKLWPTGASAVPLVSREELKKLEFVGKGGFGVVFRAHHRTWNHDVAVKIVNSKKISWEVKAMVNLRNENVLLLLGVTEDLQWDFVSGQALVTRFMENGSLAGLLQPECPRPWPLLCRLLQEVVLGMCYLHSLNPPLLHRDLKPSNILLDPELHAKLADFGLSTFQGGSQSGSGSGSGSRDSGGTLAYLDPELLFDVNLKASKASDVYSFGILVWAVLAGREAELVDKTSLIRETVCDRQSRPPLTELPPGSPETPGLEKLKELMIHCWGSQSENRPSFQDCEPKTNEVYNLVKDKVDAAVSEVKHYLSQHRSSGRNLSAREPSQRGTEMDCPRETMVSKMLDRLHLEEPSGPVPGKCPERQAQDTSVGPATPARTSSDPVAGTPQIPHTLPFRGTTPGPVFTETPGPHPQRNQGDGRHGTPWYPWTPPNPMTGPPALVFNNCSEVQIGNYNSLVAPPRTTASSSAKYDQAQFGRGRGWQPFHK

Row | SMILES | viral replication (IAV (PR8)) | IAV (PR8)-induced RIPK3-RIPK1 necrosome / complex formation (RIPK3-RIPK1 necrosome [1]) | protection of viability after PR8 infection, inhibitor alone [4] | further results
1 | Cc1onc(-c2ccccc2)c1C(=O)N1CCN(c2ccc([N+](=O)[O-])cc2Cl)CC1 [nucleozin] | abrogated viral replication | potently blocked |  | 
2 | COC(=O)C[C@H](NC(=O)[C@H](C)NC(=O)[C@@H](NC(=O)OCc1ccccc1)C(C)C)C(=O)CF [zVAD, zVAD.fmk] (Cbz-Val-Ala-Asp(OMe)-CH2F) |  |  | did not protect | IAV-induced cleavage of caspase 8 [2]: inhibited; rescue from PR8-induced cell death in mlkl−/− MEFs [3]: fully rescued; protection against apoptosis induced by TRAIL and cycloheximide [5]: prevented apoptosis; viability of PR8-infected ripk3−/− MEFs [6]: remained mostly alive; necrosome formation induced by the agent alone (RIPK3-RIPK1 necrosome [1]; zVAD alone, 25 μM, no virus): did not induce detectable necrosome formation
3 | CC(C)S(=O)(=O)c1ccc2nccc(Nc3ccc4scnc4c3)c2c1 [GSK'872] |  | blocked PR8-induced necrosome assembly | failed to prevent PR8-induced cell death | protection from PR8-induced cell death in ripk1−/− MEFs [7]: almost-fully protected; protection against TNF-α-induced necroptosis / cell death [8]: fully protective
4 | CN1C(=O)C(Cc2c[nH]c3ccccc23)NC1=S (stereo not drawn) [Nec-1, Necrostatin 1] |  | inability of these agents to prevent IAV-driven necrosome formation | did not have any discernible protective effect | 
5 | CN1C(=O)[C@@H](NC(=O)c2cc(Cc3ccccc3)on2)COc2ccccc21 [GSK'481] |  | inability of these agents to prevent IAV-driven necrosome formation | did not have any discernible protective effect | 
6 | Cc1c2oc3c(C)ccc(C(=O)N[C@@H]4C(=O)N[C@H](C(C)C)C(=O)N5CCC[C@H]5C(=O)N(C)CC(=O)N(C)[C@@H](C(C)C)C(=O)O[C@@H]4C)c3nc-2c(C(=O)N[C@@H]2C(=O)N[C@H](C(C)C)C(=O)N3CCC[C@H]3C(=O)N(C)CC(=O)N(C)[C@@H](C(C)C)C(=O)O[C@@H]2C)c(N)c1=O [ActD, Actinomycin D] (I: T[dV]P[Sar][NMeV] / II: T[dV]P[Sar][NMeV]; ester I:1-I:C, II:1-II:C; linker I:N-II:N via Actinocin(9to1)) | effectively prevented | effectively prevented |  | effect on TNF-α-induced necrosome assembly (RIPK3-RIPK1 necrosome [9]): Neither ActD nor CHX at these doses affected
7 | CC(C)(C)C(=O)N1N=CC[C@H]1c1ccccc1 [GSK'963] |  | inability of these agents to prevent IAV-driven necrosome formation | did not have any discernible protective effect | 
8 | Cc1cc(-c2cnc(N)c3c(-c4ccc5scnc5c4)csc23)n(C)n1 [GSK'843] |  | blocked PR8-induced necrosome assembly | failed to prevent PR8-induced cell death | protection from PR8-induced cell death in ripk1−/− MEFs [7]: almost-fully protected; protection against TNF-α-induced necroptosis / cell death [8]: fully protective
9 | CC[C@H](C)[C@H](NC(=O)OCc1ccccc1)C(=O)N[C@@H](CCC(=O)OC)C(=O)N[C@H](C(=O)N[C@@H](CC(=O)OC)C(=O)CF)[C@@H](C)O [zIETD, zIETD.fmk] (Cbz-IE(OMe)TD(OMe)-CH2F) |  |  |  | protection against PR8 compared with zVAD [3]: less protection against PR8 than zVAD; rescue from PR8-induced cell death in mlkl−/− MEFs [3]: significant protection
10 | C[C@@H]1C[C@@H]([C@H](O)CC2CC(=O)NC(=O)C2)C(=O)[C@@H](C)C1 [CHX, cycloheximide] | effectively prevented | effectively prevented |  | effect on TNF-α-induced necrosome assembly (RIPK3-RIPK1 necrosome [9]): Neither ActD nor CHX at these doses affected
